Measurements taken from patent publication US6495591B1, “Fungal efflux pump inhibitors” (Essential Therapeutics, Inc., priority 1997, dated 2002).
In brackets after ≈: the same amount, converted by molar mass. Read-outs that look alike come from different tables or passages of the source.

Columns and labels:
Type in all cases: cell-based
[1] = tested on: YEM 13 C. albicans BEN up; experiment: microbe, parasite or virus in culture; settings: YEM 13, 24 hrs, 80% inhibition; for MIC of compound in the presence of fluconazole (+): 1/8 × MIC of fluconazole
[2] = tested on: YEM 15 C. albicans, CDR1CDR2 up; experiment: microbe, parasite or virus in culture; settings: YEM 15, 24 hrs, 80% inhibition; for MIC of compound in the presence of fluconazole (+): 1/8 × MIC of fluconazole
YEM 53 C. krusei = experiment: FEPI MIC with/without 1/8 fluconazole MIC at 24 hrs (Table 11); settings: YEM 53, 24 hrs, 80% inhibition; for MIC of compound in the presence of fluconazole (+): 1/8 × MIC of fluconazole
[3] = tested on: YEM 17 C. glabrata, CgCDR up; settings: 24 hrs, 80% inhibition; for MIC of compound in the presence of fluconazole (+): 1/8 × MIC of fluconazole
YEM 51 C. glabrata wt = experiment: FEPI MIC with/without 1/8 fluconazole MIC at 24 hrs (Table 11); settings: YEM 51, 24 hrs, 80% inhibition; for MIC of compound in the presence of fluconazole (+): 1/8 × MIC of fluconazole
YEM 30 C. albicans wt = experiment: as above; settings: YEM 30, 24 hrs, 80% inhibition; for MIC of compound in the presence of fluconazole (+): 1/8 × MIC of fluconazole
[4] = tested on: YEM 24 C. albicans ΔCDR1, ΔCDR2; experiment: microbe, parasite or virus in culture; settings: YEM 24, 24 hrs, 80% inhibition; for MIC of compound in the presence of fluconazole (+): 1/8 × MIC of fluconazole
[5] = tested on: YEM 27 C. albicans ΔCDR1ΔCDR2 ΔBENΔFLU1; experiment: microbe, parasite or virus in culture; settings: YEM 27, 24 hrs, 80% inhibition; for MIC of compound in the presence of fluconazole (+): 1/8 × MIC of fluconazole
Aspergillus fumigatus = experiment: FEPI MICs in combination with 1/4 the azole's MIC (Table 12); design: FEPI MIC (alone): unit not given here; settings: for FEPI MIC with fluconazole, 60% Inh / FEPI MIC with fluconazole, 80% Inh: fluconazole 32 μg/ml (1/4 MIC); for FEPI MIC with fluconazole, 60% Inh / FEPI MIC with itraconazole, 60% Inh / FEPI MIC with ketoconazole, 60% Inh: 60% inhibition; for FEPI MIC with fluconazole, 80% Inh / FEPI MIC with itraconazole, 80% Inh / FEPI MIC with ketoconazole, 80% Inh / FEPI MIC (alone): 80% inhibition; for FEPI MIC with itraconazole, 60% Inh / FEPI MIC with itraconazole, 80% Inh: itraconazole 0.063 μg/ml (1/4 MIC); for FEPI MIC with ketoconazole, 60% Inh / FEPI MIC with ketoconazole, 80% Inh: ketoconazole 4 μg/ml (1/4 MIC); for FEPI MIC (alone): no azole, 35° C., CM Broth
Procedure: The combinations were tested against a series of Candida strain with known expression of efflux pumps or with complete deletion of all known pumps and Aspergillus fumigatus. Results are reported as minimum inhibitory concentration (MIC) of […] in the presence or absence of […]. A total of 27 distinct milbemycins were studied.

[6] = tested on: C. albicans YEM-15 (CDR1 & CDR2 overexpressor); experiment: microbe, parasite or virus in culture; settings: Candida albicans
[7] = tested on: C. glabrata YEM-17 (CgCDR overexpressor); experiment: microbe, parasite or virus in culture; settings: Nakaseomyces glabratus
C. krusei YEM-71 = experiment: Broth dilution checkerboard, azoles and terbinafine with milbemycin α9 (Table 8); settings: Pichia kudriavzevii, YEM71, YEM-71, alone

| Compound | MIC of compound in the presence of fluconazole (+) [1] | MIC of compound in the absence of fluconazole (−) [1] | MIC of compound in the presence of fluconazole (+) [2] | MIC of compound in the absence of fluconazole (−) [2] | MIC of compound in the presence of fluconazole (+) (YEM 53 C. krusei) | MIC of compound in the absence of fluconazole (−) (YEM 53 C. krusei) | MIC of compound in the presence of fluconazole (+) [3] | MIC of compound in the absence of fluconazole (−) [3] | MIC of compound in the presence of fluconazole (+) (YEM 51 C. glabrata wt) | MIC of compound in the absence of fluconazole (−) (YEM 51 C. glabrata wt) | MIC of compound in the presence of fluconazole (+) (YEM 30 C. albicans wt) | MIC of compound in the absence of fluconazole (−) (YEM 30 C. albicans wt) | MIC of compound in the presence of fluconazole (+) [4] | MIC of compound in the absence of fluconazole (−) [4] | MIC of compound in the presence of fluconazole (+) [5] | MIC of compound in the absence of fluconazole (−) [5] | FEPI MIC with fluconazole, 60% Inh (Aspergillus fumigatus) | FEPI MIC with fluconazole, 80% Inh (Aspergillus fumigatus) | FEPI MIC with itraconazole, 60% Inh (Aspergillus fumigatus) | FEPI MIC with itraconazole, 80% Inh (Aspergillus fumigatus) | other results |
| --- | --- | --- | --- | --- | --- | --- | --- | --- | --- | --- | --- | --- | --- | --- | --- | --- | --- | --- | --- | --- | --- |
| CCC(C)C1OC2(CC3CC(CC=C(C)C(O)C(C)C=CC=C4COC5C(O)C(C)=CC(C(=O)O3)C45O)O2)CC(O)C1C (stereo not drawn) [Compound 14, Avermectin β2a aglycone] | > 64 µg/mL | > 64 µg/mL | 2 µg/mL | > 64 µg/mL | > 64 µg/mL | > 64 µg/mL | 16 µg/mL | > 64 µg/mL | 16 µg/mL | > 64 µg/mL | 4 µg/mL | > 64 µg/mL | > 64 µg/mL | > 64 µg/mL | > 64 µg/mL | > 64 µg/mL | 64 | >64 | >64 | >64 | FEPI MIC with ketoconazole, 60% Inh (Aspergillus fumigatus): 2; FEPI MIC with ketoconazole, 80% Inh (Aspergillus fumigatus): 16; FEPI MIC (alone) (Aspergillus fumigatus): >64 |
| C/C1=C\C[C@@H]2C[C@@H](C[C@]3(CC[C@H](C)[C@@H](C)O3)O2)OC(=O)[C@@H]2C=C(COC(=O)C(C)C)[C@@H](O)[C@H]3OC/C(=C\C=C\[C@H](C)C1)[C@]32O [Compound 20, 4a-O-isobutyryl milbemycin α1] | 64 µg/mL | > 64 µg/mL | ≦0.03 | > 64 µg/mL | 4 µg/mL | > 64 µg/mL | 4 µg/mL | > 64 µg/mL | 2 µg/mL | > 64 µg/mL | ≦0.06 | > 64 µg/mL | > 64 µg/mL | > 64 µg/mL | 64 µg/mL | > 64 µg/mL | 2 | 4 | 0.25 | 8 | FEPI MIC with ketoconazole, 60% Inh (Aspergillus fumigatus): ≦0.063; FEPI MIC with ketoconazole, 80% Inh (Aspergillus fumigatus): ≦0.063; FEPI MIC (alone) (Aspergillus fumigatus): 64 |
| CCC(C)C1OC2(CC3CC(CC=C(C)C(OC4CC(OC)C(O)C(C)O4)C(C)C=CC=C4COC5C(O)C(C)=CC(C(=O)O3)C45O)O2)CC(O)C1C (stereo not shown) [Compound 23, Avermectin B2a monoglycoside] | > 64 µg/mL | > 64 µg/mL | 64 µg/mL | > 64 µg/mL | > 64 µg/mL | > 64 µg/mL | > 64 µg/mL | > 64 µg/mL | > 64 µg/mL | > 64 µg/mL | ≦0.03 | > 64 µg/mL | > 64 µg/mL | > 64 µg/mL | > 64 µg/mL | > 64 µg/mL | >64 | >64 | 64 | >64 | FEPI MIC with ketoconazole, 60% Inh (Aspergillus fumigatus): ≦0.063; FEPI MIC with ketoconazole, 80% Inh (Aspergillus fumigatus): 8; FEPI MIC (alone) (Aspergillus fumigatus): >64 |
| C/C1=C\C[C@@H]2C[C@@H](C[C@]3(CC[C@H](C)[C@@H](C)O3)O2)OC(=O)[C@@H]2C=C(COC(=O)Cc3ccccc3)[C@@H](O)[C@H]3OC/C(=C\C=C\[C@H](C)C1)[C@]32O [Compound 25, 4a-O-phenylacetyl milbemycin α1] | > 64 µg/mL | > 64 µg/mL | ≦0.03 | > 64 µg/mL | 0.06 µg/mL | > 64 µg/mL | 2 µg/mL | > 64 µg/mL | 4 µg/mL | > 64 µg/mL | ≦0.03 | > 64 µg/mL | > 64 µg/mL | > 64 µg/mL | > 64 µg/mL | > 64 µg/mL | 1 | 2 | 0.5 | >64 | FEPI MIC with ketoconazole, 60% Inh (Aspergillus fumigatus): ≦0.063; FEPI MIC with ketoconazole, 80% Inh (Aspergillus fumigatus): 0.25; FEPI MIC (alone) (Aspergillus fumigatus): >64 |
| CCC(C)n1ncn(-c2ccc(N3CCN(c4ccc(OCC5COC(Cn6cncn6)(c6ccc(Cl)cc6Cl)O5)cc4)CC3)cc2)c1=O (stereo not shown) [Itraconazole, itraconazole, reference compound] | – | – | – | – | – | – | – | – | – | – | – | – | – | – | – | – | – | – | – | – | MIC ([6]; read-out: Itraconazole MIC): 0.5 µg/mL (≈ 0.709 µM); MIC ([7]; read-out: Itraconazole MIC): 128 µg/mL (≈ 181 µM); MIC (C. krusei YEM-71; read-out: Itraconazole MIC): 0.5 µg/mL |
| CC(=O)N1CCN(c2ccc(OCC3COC(Cn4ccnc4)(c4ccc(Cl)cc4Cl)O3)cc2)CC1 (stereo not shown) [Ketoconazole, ketoconazole, reference compound] | – | – | – | – | – | – | – | – | – | – | – | – | – | – | – | – | – | – | – | – | MIC ([6]; read-out: Ketoconazole MIC): 1 µg/mL (≈ 1.88 µM); MIC ([7]; read-out: Ketoconazole MIC): 2 µg/mL (≈ 3.76 µM); MIC (C. krusei YEM-71; read-out: Ketoconazole MIC): 2 µg/mL |
| LL-F2849ζ (nemedectinζ) [Compound 17] | > 64 µg/mL | > 64 µg/mL | ≦0.03 | > 64 µg/mL | > 64 µg/mL | > 64 µg/mL | 2 µg/mL | > 64 µg/mL | 0.5 µg/mL | > 64 µg/mL | ≦0.03 | > 64 µg/mL | > 64 µg/mL | > 64 µg/mL | 64 µg/mL | > 64 µg/mL | 64 | 64 | 16 | >64 | FEPI MIC with ketoconazole, 60% Inh (Aspergillus fumigatus): 4; FEPI MIC with ketoconazole, 80% Inh (Aspergillus fumigatus): 4; FEPI MIC (alone) (Aspergillus fumigatus): >64 |
